In US20240209038A1, “TARGETING PIEZO1 TO TREAT INHERITED AND AGE-RELATED MACULAR DEGENERATIONS” (priority 2021, published 2024):
No end group written: not given here.

Key:
RPE [1] = details: cited from earlier work; for cholesterol and ceramide accumulation in RPE: Tan et al., 2016
RPE [2] = test: Complement-mediated mitochondrial fragmentation in RPE (mito-RFP live imaging, A2E + 10% NHS); format: cell-based; details: A2E-treated RPE exposed to 10% NHS; Simvastatin 5 μM 16 h, T0901317 1 μM 16 h, desipramine 10 μM 3 h
Experimental: (§1) FIGS. 7A-7B. 7A, 3D reconstruction from live imaging of mitochondrial volumes in mock transfected RPE transduced with mito-RFP, treated with A2E and exposed to 10% NHS to induce complement attack. RPE were treated with Simvastatin (5 μM, 16 h), T0901317 (1 μM, 16 h) or desipramine (10 μM, 3 h) prior to imaging. […] 7B, Quantification of fragmented mitochondria per cell from images in A. Mean±SEM, ***, p<0.0001, t-test. C, H3K9me3 (red) immunostaining in retinal cryosections from Abca4−/− mice treated with vehicle or […] desipramine i.p.

RPE [3] = test: Cholesterol and ceramide accumulation in the RPE; format: cell-based; details: FIGS. 3A and 3B
Experimental: (§2) Intrinsic stressors to activate Piezo1. RPE monolayers were treated with the bisretinoid A2E to increase cholesterol and ceramide (Kaur et al., 2018; La Cunza et al., 2020; Tan et al., 2016; Toops et al., 2015), which act as intrinsic stressors that activate Piezo1.

primary porcine RPE = test: Live imaging of calcium influx (Fluo-4 NW) in polarized primary RPE; format: cell-based, pig; details: for cytosolic and nuclear calcium at baseline: RPE treated with stressor causing cholesterol and ceramide accumulation; for intracellular calcium spikes in RPE cultured on silica beads: RPE cultured on silica beads to simulate drusen
Description: (§3) Primary adult RPE cultures. Polarized RPE monolayers from pig eyes were generated as described (Kaur et al., 2018; Tan et al., 2016; Toops et al., 2015; Toops et al., 2014). RPE on collagen-coated transwell filters form fully polarized monolayers within two weeks, develop trans-epithelial electrical resistances (TER) of ≥400 ohm·cm^2 and express RPE differentiation markers such as apical Na^+,K^+-ATPase and intracellular RPE65 (Toops et al., 2014).
as §2
Extrinsic stressors to activate Piezo1. To simulate drusen-mediated mechanical stress, cells were cultured on collagen-coated filters layered with 500 nm diameter monodisperse silica microspheres (Cospheric SiO2MS-2.0 0.507 μm) at a density of 40 beads/cm^2 in a collagen (10 μg/cm^2) matrix.
Drugs that modulate Piezo1 activity (Xiao, 2020). Yoda1 is a small molecule gating modifier that specifically potentiates Piezo1 mechanosensitivity and slows the inactivation kinetics with EC50 of ˜10-20 μM. It interacts with the […] domains of Piezo1 and thereby increases channel opening time. […] We treated primary RPE cultures for 6 hours with 10 μM Yoda1 (Sigma SML1558) for immunostaining/immunoblotting and biochemical experiments, or with 25 μM for 1-5 minutes for live imaging experiments. RPE cultures were treated with 500 nM GsMTx-4 (Tocris 4912100U) for 6 h.
High-speed live-cell imaging. The Nikon CSU-X1 dual camera platform spinning disk confocal microscopy system will be used for live imaging of primary RPE cultures and mouse RPE flatmounts. Images will be analyzed using Imaris (Bitplane) (Kaur et al., 2018; Tan et al., 2016; Toops et al., 2015). If necessary, Delta Vision OMX-SR (GE Healthcare Life Sciences) with 3D structured illumination microscopy (3D-SIM) and ring-TIRF capabilities at UCSF's Nikon Imaging Center will be used for super-resolution imaging.
Live imaging of calcium influx. For live imaging of calcium influx, primary porcine RPE grown on Transwell filters±A2E or grown on silica beads, and mouse RPE flatmounts were loaded with Fluo-4 NW (Invitrogen, F36206) for 30 min according to manufacturer's protocol. Excised Transwell filters or mouse RPE flatmounts were mounted onto a Warner chamber in the presence of Fluorobrite DMEM (Gibco, A1896701) supplemented with 1% FBS (ATCC, 30-2020), 1% NEAA (Corning, 25025CI), and 4 mM L-glutamine (Gibco, 25030081) and imaged using Nikon spinning disk confocal microscope with 60× oil immersion objective (1.49 NA). To increase or inhibit Piezo1 channel activity, Yoda1 (25 μM) or GsMTx-4 (5 μM) was added prior to live imaging. Apart from these drugs, preincubation with BAPTA-AM (Thermofisher) was used to determine the Ca^2+-dependence of nuclear and cytosolic signals.

Abca4−/− mice = test: Nuclear H3K9me3 in RPE of Abca4−/− mice after drug administration; format: in vivo, mouse; details: 10 mg/kg i.p., three times/week for four weeks, compared to vehicle-treated mice
Experimental: as §1
(§4) Mice. There are no mouse models that adequately reproduce AMD phenotypes. We therefore used models that best recapitulate the phenotype of interest. We used pigmented wild-type (129S1/SvlmJ) and Abca4^−/− mice (Jackson Labs) because we and others have reported that Abca4^−/− mice RPE show an age-dependent accumulation of cholesterol and ceramide (Kaur et al., 2018; Lenis et al., 2017; Tan et al., 2016; Toops et al., 2015), which are known to prolong Piezo1 activation (Ridone et al., 2020, Shi et al., 2020).
Antibodies. All antibodies used were validated for specificity using the relevant IgG controls, cell lysates lacking the antigen, or by blocking peptides. […]

[4] = tested on: polarized primary RPE cultures; test: Live imaging of actin dynamics (SiR-actin) in polarized primary RPE cultures; format: cell-based, pig
Experimental: (§5) FIGS. 4A-4E. 4A, 3D reconstructions; 4B, quantitation of mitochondrial volumes from Tom20 staining in primary RPE cultures treated or not with Yoda1 and GsMTx-4. Warmer colors indicate healthy mitochondria and cooler colors indicate fragmented mitochondria. Mean±SEM; *** p<0.0001, unpaired t-test. 4C, H3K9me3 (red; merge with DAPI appears pink) immunostaining in primary RPE cultured on collagen or collagen with silica beads±GSMTx-4 (500 nM, 3 h). 4D, Actin labeling in live primary RPE cultures. Arrow heads: actin “knots” that indicate areas of actin polymerization prior to actomyosin contraction and cell extrusion. 4E, quantitation of actin staining intensity in primary RPE cultured on collagen or collagen with beads and treated with Yoda1 and/or GsMTx-4. Mean±SEM, *, p<0.05; *** p<0.001, unpaired t-test.
Primary adult RPE cultures. Polarized RPE monolayers from pig eyes were generated as described (Kaur et al., 2018; Tan et al., 2016; Toops et al., 2015; Toops et al., 2014). RPE on collagen-coated transwell filters form fully polarized monolayers within two weeks, develop trans-epithelial electrical resistances (TER) of ≥400 ohm·cm^2 and express RPE differentiation markers such as apical Na^+,K^+-ATPase and intracellular RPE65 (Toops et al., 2014). […]

primary polarized RPE [5] = test: Mitochondrial volumes/fragmentation from Tom20 staining in primary RPE cultures; format: cell-based, pig
Experimental: as §5, §3
(§6) Drugs that modulate Piezo1 activity (Xiao, 2020). […]

Piezo1 [6] = molecular target: Piezo1 (Mus musculus, UniProt E2JF22); details: whole cell recordings as described in Bae et al., Biochemistry 50:6295-300, 2011; range printed with mixed units (nM to μM); read-out: Kd, reversible block of Piezo1 activation; cited from earlier work
primary polarized RPE [7] = test: H3K9me3 immunostaining in primary polarized RPE; format: cell-based, pig; details: prolonged piezo1 activation
Experimental: as §5, §3, §6

Piezo2 = details: specificity for Piezo1; cited from earlier work
Piezo1 [8] = details: Xiao, 2020; read-out: EC50, potentiates Piezo1 mechanosensitivity and slows the inactivation kinetics; cited from earlier work
[9] = tested on: Abca4−/− mice RPE flatmounts; test: Live imaging of calcium influx (Fluo-4 NW) in mouse RPE flatmounts; format: cell-based; details: preliminary live imaging
Description: as §4
(§7) Live imaging of mouse RPE flatmounts. Tissue from freshly harvested eyes will be mounted onto a Warner chamber in the presence of Fluorobrite DMEM (Gibco, A1896701) supplemented with 1% FBS (ATCC, 30-2020), 1% NEAA (Corning, 25025CI), and 4 mM L-glutamine (Gibco, 25030081) and imaged immediately using a 60× oil immersion objective (1.49 NA).
Live imaging of calcium influx. For live imaging of calcium influx, primary porcine RPE grown on Transwell filters±A2E or grown on silica beads, and mouse RPE flatmounts were loaded with Fluo-4 NW (Invitrogen, F36206) for 30 min according to manufacturer's protocol. […]

[10] = tested on: Abca4−/− mice RPE flatmounts; test: Live imaging of actin (SiR-actin) in mouse RPE flatmounts; format: cell-based; details: freshly isolated Abca4−/− mice RPE flatmounts compared to age-matched wild types
Description: FIGS. 5A-5C. Validation of the Abca4−/− mouse model to study the role of Piezo1 in RPE dysfunction. 5A, H3K9me3 (red) immunostaining in 8-month-old wild type and Abca4−/− mouse RPE flatmounts. 5B, reconstruction of mitochondrial volumes from Tom20 staining in wild type and Abca4−/− mouse RPE flatmounts. Warmer colors indicate healthy mitochondria and cooler colors indicate fragmented mitochondria. 5C, Live imaging of mouse RPE flatmounts with FluoNW (green) and SiR-actin (red).
as §7
Live imaging of actin dynamics was performed using SiR-actin (1 μM, 30 min) and FLIPPER-TR plasma membrane probe in RPE with A2E or grown on silica beads±Yoda1±GsMTx-4

Piezo1 [11] = molecular target: T1, Piezo1 (Homo sapiens, UniProt Q92508); test: Piezo1 currents in whole cell-clamped primary RPE (patch-clamp/high-speed pressure clamp); format: cell-based; details: depletion of membrane cholesterol
T1 construct: Dissociated RPE cells from human donors were whole cell-clamped; endogenous in cells; host or cells: dissociated RPE cells from human donors
Description: FIGS. 3A-3D. Cholesterol and ceramide modulate Piezo1 activation in the RPE. 3A, Stills (at 130 sec and 300 sec) from Fluo4NW live imaging (green); 3B, quantification. In the results provided in FIGS. 3A and 3B, U18 increased cholesterol and ceramide. Mean±SEM, ** p<0.005, unpaired t-test. 3C, Representative traces of whole-cell currents in primary RPE recorded in a typical patch-clamp/HSPC experiment (40 mV holding potential, 25 mm Hg pressure step for 500 mSec). Black trace—control cells; red trace—RPE treated with b-cyclodextrin to deplete membrane cholesterol. 3D, Quantification of results in C. Mean±SEM, n=4 cells.
Electrophysiology. Dissociated RPE cells from human donors were whole cell-clamped. Steps of positive pressure (2-30 mm Hg) were applied through the patch pipette using high-speed pressure clamp (ALA Instruments) or the cells stimulated with msec indentations of a blunt pipette tip (Physik Instrumente) to evoke the mechanosensitive current. The Piezo1-dependent current was confirmed using GsMTx-4 (Lapajne et al., 2020).

Piezo1 [12] = details: Suchyna, et al. Nature 430:235-240, 2004; cited from earlier work
[13] = in vitro and in vivo (Kaur et al., 2018; Tan et al., 2016; Toops et al., 2015)

Sequence of Piezo1 (Mus musculus, UniProt E2JF22) (E2JF22 whole entry): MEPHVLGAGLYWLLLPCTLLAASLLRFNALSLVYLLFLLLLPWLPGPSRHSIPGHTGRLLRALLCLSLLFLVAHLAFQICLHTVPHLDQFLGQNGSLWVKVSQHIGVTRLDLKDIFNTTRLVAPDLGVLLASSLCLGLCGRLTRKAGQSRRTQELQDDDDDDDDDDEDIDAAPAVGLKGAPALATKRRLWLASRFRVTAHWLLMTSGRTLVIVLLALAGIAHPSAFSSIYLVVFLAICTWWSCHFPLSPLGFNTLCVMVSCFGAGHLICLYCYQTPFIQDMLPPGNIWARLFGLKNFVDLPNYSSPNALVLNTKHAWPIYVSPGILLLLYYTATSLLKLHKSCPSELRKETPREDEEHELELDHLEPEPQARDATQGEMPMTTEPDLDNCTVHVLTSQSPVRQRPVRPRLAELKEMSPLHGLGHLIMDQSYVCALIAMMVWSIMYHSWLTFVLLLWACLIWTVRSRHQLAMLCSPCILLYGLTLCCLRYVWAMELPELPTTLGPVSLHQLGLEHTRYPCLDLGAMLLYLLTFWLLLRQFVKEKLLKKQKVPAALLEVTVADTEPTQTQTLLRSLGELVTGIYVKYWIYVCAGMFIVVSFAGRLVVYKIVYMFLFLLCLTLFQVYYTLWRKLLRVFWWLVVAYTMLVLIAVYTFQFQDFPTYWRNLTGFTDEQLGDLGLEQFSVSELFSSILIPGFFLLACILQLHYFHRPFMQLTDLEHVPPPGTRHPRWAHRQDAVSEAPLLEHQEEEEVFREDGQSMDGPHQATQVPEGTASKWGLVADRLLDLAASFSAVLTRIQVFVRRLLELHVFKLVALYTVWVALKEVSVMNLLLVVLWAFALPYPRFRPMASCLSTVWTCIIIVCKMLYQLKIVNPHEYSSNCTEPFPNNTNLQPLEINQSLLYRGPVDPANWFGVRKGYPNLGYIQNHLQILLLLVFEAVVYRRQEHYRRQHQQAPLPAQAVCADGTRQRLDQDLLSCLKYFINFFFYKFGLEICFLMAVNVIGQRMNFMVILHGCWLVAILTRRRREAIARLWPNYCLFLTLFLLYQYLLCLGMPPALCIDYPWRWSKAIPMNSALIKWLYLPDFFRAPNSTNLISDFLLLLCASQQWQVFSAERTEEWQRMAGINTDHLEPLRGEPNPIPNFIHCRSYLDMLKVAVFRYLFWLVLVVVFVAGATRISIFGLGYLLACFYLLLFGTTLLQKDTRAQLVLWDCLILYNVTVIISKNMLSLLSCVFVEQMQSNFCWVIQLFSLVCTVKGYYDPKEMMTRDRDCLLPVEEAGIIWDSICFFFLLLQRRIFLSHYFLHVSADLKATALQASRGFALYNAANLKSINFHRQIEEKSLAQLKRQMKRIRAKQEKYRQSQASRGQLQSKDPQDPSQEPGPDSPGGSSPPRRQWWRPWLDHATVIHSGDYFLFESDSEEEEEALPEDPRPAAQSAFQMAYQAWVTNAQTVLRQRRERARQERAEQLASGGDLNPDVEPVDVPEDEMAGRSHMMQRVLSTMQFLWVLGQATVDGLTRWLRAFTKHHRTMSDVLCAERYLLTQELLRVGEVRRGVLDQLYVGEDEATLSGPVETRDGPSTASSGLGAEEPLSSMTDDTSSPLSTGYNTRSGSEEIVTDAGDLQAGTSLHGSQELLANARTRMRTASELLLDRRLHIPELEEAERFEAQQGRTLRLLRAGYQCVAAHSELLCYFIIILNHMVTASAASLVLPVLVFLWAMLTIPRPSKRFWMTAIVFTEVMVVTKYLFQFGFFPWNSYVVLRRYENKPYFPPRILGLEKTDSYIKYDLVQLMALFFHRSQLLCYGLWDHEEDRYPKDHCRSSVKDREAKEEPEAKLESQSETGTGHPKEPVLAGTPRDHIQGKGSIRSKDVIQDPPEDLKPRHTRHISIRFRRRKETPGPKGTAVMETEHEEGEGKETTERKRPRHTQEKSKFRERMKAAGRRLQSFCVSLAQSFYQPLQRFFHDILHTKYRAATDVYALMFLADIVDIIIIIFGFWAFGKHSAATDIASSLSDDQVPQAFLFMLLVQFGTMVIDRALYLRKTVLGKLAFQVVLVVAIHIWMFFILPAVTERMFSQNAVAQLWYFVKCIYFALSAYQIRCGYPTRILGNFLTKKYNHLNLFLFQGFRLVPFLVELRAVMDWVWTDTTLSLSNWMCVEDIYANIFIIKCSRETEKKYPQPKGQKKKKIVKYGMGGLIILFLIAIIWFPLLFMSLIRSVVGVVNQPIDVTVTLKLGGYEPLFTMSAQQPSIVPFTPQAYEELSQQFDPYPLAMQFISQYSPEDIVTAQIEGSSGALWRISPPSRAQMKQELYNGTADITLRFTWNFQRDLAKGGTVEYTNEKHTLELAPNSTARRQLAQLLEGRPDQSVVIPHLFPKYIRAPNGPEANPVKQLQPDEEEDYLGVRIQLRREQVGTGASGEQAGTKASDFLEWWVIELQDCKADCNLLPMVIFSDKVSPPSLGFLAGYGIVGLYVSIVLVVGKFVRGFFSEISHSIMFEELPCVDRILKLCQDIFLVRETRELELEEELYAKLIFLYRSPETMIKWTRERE
T1 sequence (Q92508 whole entry): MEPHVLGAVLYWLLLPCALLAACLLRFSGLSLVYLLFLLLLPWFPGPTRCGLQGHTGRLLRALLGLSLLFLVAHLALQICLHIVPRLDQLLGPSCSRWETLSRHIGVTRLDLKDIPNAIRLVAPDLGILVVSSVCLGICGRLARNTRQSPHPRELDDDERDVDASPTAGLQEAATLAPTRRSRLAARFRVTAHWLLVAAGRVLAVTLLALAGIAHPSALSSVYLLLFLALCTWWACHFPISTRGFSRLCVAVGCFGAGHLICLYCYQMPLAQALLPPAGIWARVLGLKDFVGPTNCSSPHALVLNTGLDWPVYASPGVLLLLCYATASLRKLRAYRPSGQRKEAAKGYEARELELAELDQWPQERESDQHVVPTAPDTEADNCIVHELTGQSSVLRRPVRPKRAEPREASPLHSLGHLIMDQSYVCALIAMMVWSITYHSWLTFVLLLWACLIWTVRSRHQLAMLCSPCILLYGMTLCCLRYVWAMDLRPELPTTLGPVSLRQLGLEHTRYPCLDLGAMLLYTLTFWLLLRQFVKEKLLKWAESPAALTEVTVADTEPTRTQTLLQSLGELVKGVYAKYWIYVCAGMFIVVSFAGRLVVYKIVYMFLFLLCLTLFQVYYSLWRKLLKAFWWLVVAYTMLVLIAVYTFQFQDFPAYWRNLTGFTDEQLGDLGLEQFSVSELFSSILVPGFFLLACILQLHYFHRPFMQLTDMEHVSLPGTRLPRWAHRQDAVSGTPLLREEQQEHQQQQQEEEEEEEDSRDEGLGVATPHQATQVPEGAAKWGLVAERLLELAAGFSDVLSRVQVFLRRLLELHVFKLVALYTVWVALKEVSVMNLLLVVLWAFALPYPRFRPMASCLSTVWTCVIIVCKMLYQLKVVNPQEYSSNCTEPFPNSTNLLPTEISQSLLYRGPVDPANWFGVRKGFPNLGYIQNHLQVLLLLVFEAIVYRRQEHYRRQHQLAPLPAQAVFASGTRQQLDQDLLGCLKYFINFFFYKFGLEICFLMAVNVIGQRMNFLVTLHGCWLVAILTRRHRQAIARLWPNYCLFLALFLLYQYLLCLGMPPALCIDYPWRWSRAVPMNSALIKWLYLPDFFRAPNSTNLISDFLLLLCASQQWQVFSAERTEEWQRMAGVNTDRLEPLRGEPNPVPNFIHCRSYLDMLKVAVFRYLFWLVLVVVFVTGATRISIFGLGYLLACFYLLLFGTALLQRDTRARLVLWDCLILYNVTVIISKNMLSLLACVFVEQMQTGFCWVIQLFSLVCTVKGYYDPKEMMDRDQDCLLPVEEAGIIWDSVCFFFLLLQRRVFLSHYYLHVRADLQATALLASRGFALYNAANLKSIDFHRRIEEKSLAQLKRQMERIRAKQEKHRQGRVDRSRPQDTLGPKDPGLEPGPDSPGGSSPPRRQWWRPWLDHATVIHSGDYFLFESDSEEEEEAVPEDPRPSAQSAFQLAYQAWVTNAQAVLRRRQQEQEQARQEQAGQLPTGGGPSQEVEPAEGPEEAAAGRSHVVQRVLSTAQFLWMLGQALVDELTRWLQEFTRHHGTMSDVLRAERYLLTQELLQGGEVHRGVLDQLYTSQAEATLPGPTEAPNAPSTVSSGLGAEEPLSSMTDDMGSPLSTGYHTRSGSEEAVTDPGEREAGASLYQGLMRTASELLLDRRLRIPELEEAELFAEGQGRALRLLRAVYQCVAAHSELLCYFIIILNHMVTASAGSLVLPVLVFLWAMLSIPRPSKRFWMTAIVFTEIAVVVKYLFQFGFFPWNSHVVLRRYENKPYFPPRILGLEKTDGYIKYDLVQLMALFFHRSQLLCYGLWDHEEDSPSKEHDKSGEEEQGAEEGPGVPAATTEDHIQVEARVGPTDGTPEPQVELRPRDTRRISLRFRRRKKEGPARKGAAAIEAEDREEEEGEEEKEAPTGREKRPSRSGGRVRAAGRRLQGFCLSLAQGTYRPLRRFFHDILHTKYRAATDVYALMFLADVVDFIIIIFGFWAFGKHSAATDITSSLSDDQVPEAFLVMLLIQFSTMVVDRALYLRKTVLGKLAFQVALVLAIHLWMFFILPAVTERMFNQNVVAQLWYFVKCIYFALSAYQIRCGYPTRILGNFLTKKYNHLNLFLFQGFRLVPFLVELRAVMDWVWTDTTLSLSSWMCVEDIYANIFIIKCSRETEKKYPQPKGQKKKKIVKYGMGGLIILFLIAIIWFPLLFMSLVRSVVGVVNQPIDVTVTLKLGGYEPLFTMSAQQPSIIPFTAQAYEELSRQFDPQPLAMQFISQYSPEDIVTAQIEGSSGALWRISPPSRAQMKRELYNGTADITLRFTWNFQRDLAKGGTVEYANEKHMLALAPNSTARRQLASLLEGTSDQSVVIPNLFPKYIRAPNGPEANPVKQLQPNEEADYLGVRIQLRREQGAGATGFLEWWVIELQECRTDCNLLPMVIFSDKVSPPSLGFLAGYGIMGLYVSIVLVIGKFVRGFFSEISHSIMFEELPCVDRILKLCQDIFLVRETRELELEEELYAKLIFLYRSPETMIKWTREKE

O=S(=O)(c1ccccc1)N(CC(F)(F)F)c1ccc(C(O)(C(F)(F)F)C(F)(F)F)cc1 [T0901317]
lipofuscin-induced cholesterol accumulation in the RPE (RPE [1]; [13]): decreased
complement-mediated mitochondrial fragmentation in RPE (RPE [2]): protect

CCN(CC)CCO[C@H]1CC[C@@]2(C)C(=CC[C@@H]3[C@@H]2CC[C@]2(C)C(=O)CC[C@@H]32)C1 [U18666A]
cholesterol and ceramide in RPE (RPE [3]): increased
cholesterol and ceramide accumulation in RPE (RPE [1]): cause cholesterol and ceramide accumulation
cytosolic and nuclear calcium at baseline (primary porcine RPE): prolonged cytosolic and nuclear calcium even at baseline
calcium levels after Yoda1 treatment (primary porcine RPE; RPE+U18 versus control RPE, where they returned to baseline within minutes): remained high in all cellular compartments

CNCCCN1c2ccccc2CCc2ccccc21 [desipramine]
lipofuscin-induced ceramide accumulation in the RPE (RPE [1]; [13]): decreased
nuclear H3K9me3 in the RPE (Abca4−/− mice): restored nuclear H3K9me3
complement-mediated mitochondrial fragmentation in RPE (RPE [2]): protect

GsMTx-4
actin accumulation at cell-cell junctions [4]: prevented
intracellular calcium spikes in RPE cultured on silica beads (primary porcine RPE): decreased
mitochondrial fragmentation (primary polarized RPE [5]): protected RPE mitochondria
Kd (Piezo1 [6]): 155 to 2000 nM

Clc1cccc(Cl)c1CSc1nnc(-c2cnccn2)s1 [Yoda1]
nuclear H3K9me3 (primary polarized RPE [7]): loss of nuclear H3K9me3
actin accumulation at cell-cell junctions [4]: caused rapid actin accumulation at cell-cell junctions
calcium influx in the RPE (primary porcine RPE; 25 μM, 1 min, RPE on collagen, live imaging): induces a rapid nuclear calcium influx within seconds
intracellular calcium spikes in RPE cultured on silica beads (primary porcine RPE): further potentiated
activation of Piezo2 (Piezo2): does not activate Piezo2
EC50 (Piezo1 [8]): 10 to 20 µM
mitochondrial fragmentation (primary polarized RPE [5]): mitochondrial fragmentation
calcium influx in freshly isolated RPE flatmounts [9]: increased calcium influx
actin intensity in RPE flatmounts [10]: increased actin intensity

CC1=C(/C=C/C(C)=C/C=C/C(C)=C/c2cc(/C=C/C=C(C)/C=C/C3=C(C)CCCC3(C)C)cc[n+]2CCO)C(C)(C)CCC1 [A2E]
cholesterol and ceramide accumulation in RPE (RPE [1]): cause cholesterol and ceramide accumulation
cytosolic and nuclear calcium at baseline (primary porcine RPE): prolonged cytosolic and nuclear calcium even at baseline

cyclodextrin
peak current amplitudes of Piezo1 currents (Piezo1 [11]): drastically decreased

GsMTx4-L: L enantiomeric form of GsMTx4 (GCLEFWWKCNPNDDKCCRPKLKCSKLFKLCNFSF; ends and bridges not checked; cysteine pairing not given here; UniProt Q7YT39 47-80, looked up)
effectiveness at blocking Piezo1 activation, L- versus D-enantiomer (Piezo1 [12]): equally effective
